In assay [1] the target is T1, human adenosine A2A receptor (Homo sapiens, UniProt P29274).
T1 construct: host or cells: CHO or HEK cells
Conditions: cited from earlier work.

For assay [2], the target named is T2, human adenosine A1 receptor (Homo sapiens, UniProt P30542).
T2 construct: host or cells: CHO or HEK cells
T2 sequence (P30542 1-326): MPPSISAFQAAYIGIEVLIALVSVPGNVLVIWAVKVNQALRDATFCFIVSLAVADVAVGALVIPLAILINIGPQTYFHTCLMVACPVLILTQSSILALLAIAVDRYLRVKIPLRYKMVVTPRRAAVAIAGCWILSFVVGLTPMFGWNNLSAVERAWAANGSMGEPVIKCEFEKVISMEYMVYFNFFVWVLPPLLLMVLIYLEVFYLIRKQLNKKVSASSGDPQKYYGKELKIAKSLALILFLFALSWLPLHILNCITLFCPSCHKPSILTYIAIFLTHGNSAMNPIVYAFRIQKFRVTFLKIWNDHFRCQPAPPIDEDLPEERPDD
Briefly: Competitive radioligand binding with [3H]CCPA, membranes of CHO or HEK cells. Conditions: ratio of Ki values. As for the experimental part:
(§1) The binding affinities of 2 and 9 at the four human adenosine receptor subtypes A2B, A2A, A1, and A3, presented in Table 1, were determined in competitive binding assays using appropriate radioligands and membrane preparations of Chinese hamster ovary (CHO) cells or human embryonic kidney (HEK) cells, respectively, recombinantly expressing the corresponding human receptor subtype.
(§2) Membrane preparations of recombinant CHO or HEK (human embryonic kidney) cells expressing the respective human adenosine receptor subtype were obtained according to Borrman et al. or purchased from Perkin Elmer, Germany. Radioligand binding assays using human A1, A2A, A2B and A3 receptors were performed according to Alnouri et al..
[^3H]2-Chloro-N^6cyclopentyladenosine ([^3H]CCPA, molar activity: 58 Ci/mmol, 1 nM [28]) for the A1 receptor,
(§3) [^3H](R)-8-ethyl-4-methyl-2-(phenyl)1,4,7,8-tetrahydro-5H-imidazo[2,1-i]purin-5-one ([^3H]PSB-11, molar activity: 53 Ci/mmol, 1 nM [30]) for the A3 receptor. Three separate experiments were performed to determine the Ki values. All data were analyzed with GraphPad Prism, Version 4.1 (GraphPad Inc., La Jolla, CA,USA).

Assay [3] has as its target T2, human adenosine A1 receptor. The note with it: cited from earlier work.
The target of assay [4] is T3, human adenosine A3 receptor (Homo sapiens, UniProt P0DMS8).
T3 construct: host or cells: CHO or HEK cells
T3 sequence (P0DMS8 1-318): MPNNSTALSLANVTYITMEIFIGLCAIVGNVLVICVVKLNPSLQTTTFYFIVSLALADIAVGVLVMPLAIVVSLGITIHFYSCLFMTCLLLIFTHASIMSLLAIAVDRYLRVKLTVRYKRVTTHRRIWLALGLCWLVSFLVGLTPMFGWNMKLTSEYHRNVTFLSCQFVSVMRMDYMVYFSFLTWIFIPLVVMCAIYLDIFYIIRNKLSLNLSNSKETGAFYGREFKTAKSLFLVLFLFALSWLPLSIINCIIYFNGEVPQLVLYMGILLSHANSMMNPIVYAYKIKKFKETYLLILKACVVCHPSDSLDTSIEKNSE
Conditions: cited from earlier work.

Assay [5] deals with T4, human adenosine A2B receptor (Homo sapiens, UniProt P29275).
T4 construct: host or cells: CHO or HEK cells
T4 sequence (P29275 1-332): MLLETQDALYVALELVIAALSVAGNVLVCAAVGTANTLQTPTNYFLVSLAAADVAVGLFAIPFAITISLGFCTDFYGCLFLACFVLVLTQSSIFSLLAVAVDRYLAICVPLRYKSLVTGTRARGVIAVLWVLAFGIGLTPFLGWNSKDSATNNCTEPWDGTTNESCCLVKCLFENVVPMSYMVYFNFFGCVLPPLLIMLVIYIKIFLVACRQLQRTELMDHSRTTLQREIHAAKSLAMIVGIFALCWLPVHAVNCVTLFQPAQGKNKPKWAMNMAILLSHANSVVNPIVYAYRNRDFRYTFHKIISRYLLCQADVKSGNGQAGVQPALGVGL
The note with it: cited from earlier work.

Assay [6] addresses T1, human adenosine A2A receptor. The assay can be described thus: Competitive radioligand binding with [3H]MSX-2, membranes of CHO or HEK cells. The note with it: ratio of Ki values. As for the experimental part: as §1, §2
[^3H]3-(3-hydroxypropyl)-7-methyl-8-(m-methoxystyryl)-1-propargylxanthine, ([^3H]MSX-2, molar activity: 84 Ci/mmol, 1 nM [29]) for the A2A receptor,
as §3

Assay [7] addresses T3, human adenosine A3 receptor. The assay can be described thus: Competitive radioligand binding with [3H]PSB-11, membranes of CHO or HEK cells. The note with it: ratio of Ki values. As for the experimental part:
as §1, §2, §3

Results on 1 molecule are retold here after PMC7246765, “Development of a Radiofluorinated Adenosine A2B Receptor Antagonist as Potential Ligand for PET Imaging” (International Journal of Molecular Sciences, 2020).

One may read the Ki as the dissociation constant of the complex between target and ligand, obtained from inhibition or displacement.

T1 sequence (P29274 whole entry): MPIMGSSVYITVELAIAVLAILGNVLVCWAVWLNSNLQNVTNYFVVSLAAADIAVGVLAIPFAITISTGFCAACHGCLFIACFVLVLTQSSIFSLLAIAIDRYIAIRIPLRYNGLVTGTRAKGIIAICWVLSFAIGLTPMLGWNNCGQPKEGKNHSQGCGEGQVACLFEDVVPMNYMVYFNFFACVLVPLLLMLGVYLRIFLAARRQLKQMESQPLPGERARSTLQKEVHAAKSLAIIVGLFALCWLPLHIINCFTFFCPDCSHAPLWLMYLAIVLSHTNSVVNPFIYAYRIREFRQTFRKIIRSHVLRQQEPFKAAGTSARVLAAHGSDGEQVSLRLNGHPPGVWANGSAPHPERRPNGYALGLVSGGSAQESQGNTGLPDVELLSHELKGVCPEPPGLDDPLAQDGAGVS

As to `O=C(Nc1cnc(-c2ccnc(F)c2)c(-c2ccccc2F)n1)C1CC1` [Compound 1], the inhibition constant (Ki) was 55 ± 6.1 nM in assay [1], 19 ± 5.2 nM in assay [3], 796 ± 26 nM in assay [4] and 4.24 ± 0.04 nM in assay [5]. Also, in assay [2], the “Selectivity Ratio Ki(Ax)/Ki(A2B): A1/A2B” value is on record as 4.5. Also, in assay [6], the “Selectivity Ratio Ki(Ax)/Ki(A2B): A2A/A2B” value was 13. In addition, in assay [7], the “Selectivity Ratio Ki(Ax)/Ki(A2B): A3/A2B” value came out at 188.
